How the values were obtained:
Experiment in all cases: relative viability (nuclei count vs DMSO), 5 days (fraction); higher = more cells survive
[1] = compound: OCc1c[nH]c2ccccc12 [Indole-3-carbinol] + C[C@]1(O)C[C@@H](c2nc(-c3ccc4ccc(-c5ccccc5)nc4c3)c3c(N)nccn32)C1 [Linsitinib] (partner 1 µM)
Procedure, shortened: (§1)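 Five library-drug doses in √10 steps were combined with a fixed anchor-drug dose, or a single drug was given alone, by pin tool to lung cancer cell lines in 1536-well plates the day after seeding. Nuclei were stained and counted after 5 days. Relative viability is the nuclei count in treated wells over that in vehicle wells, taken as the median of duplicate plates.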

[2] = compound: OCc1c[nH]c2ccccc12 [Indole-3-carbinol] + COc1cc2c(Oc3ccc(NC(=O)C4(C(=O)Nc5ccc(F)cc5)CC4)cc3F)ccnc2cc1OCCCN1CCOCC1 [Foretinib] (partner 0.25 µM)
Procedure, shortened: as §1

[3] = compound: OCc1c[nH]c2ccccc12 [Indole-3-carbinol] + C[C@@H](Oc1cc(-c2cnn(C3CCNCC3)c2)cnc1N)c1c(Cl)ccc(F)c1Cl [Crizotinib] (partner 1 µM)
Procedure, shortened: as §1

[4] = compound: OCc1c[nH]c2ccccc12 [Indole-3-carbinol] + N=C(N)NC(=N)NCCc1ccccc1 [Phenformin] (partner 250 µM)
Procedure, shortened: as §1

Indole-3-carbinol = compound: OCc1c[nH]c2ccccc12 [Indole-3-carbinol]
Procedure, shortened: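 In 1536-well plates, lung cancer cell lines rested overnight at 37 °C before five library-drug doses (not always all listed), √10 apart, were pinned onto vehicle-anchored plates. Nuclei were counted with MetaXpress from 4× Hoechst images taken after 5 days without medium change. Viability compares treated-well with vehicle-well nuclei as a median over plates, and plates needed control CV below 25% plus at least one doubling to pass.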

Cell Line	relative viability ([1]; first compound 0.253 µM)	relative viability ([1]; first compound 0.8 µM)	relative viability ([1]; first compound 2.53 µM)	relative viability ([1]; first compound 8 µM)	relative viability ([2]; first compound 0.253 µM)	relative viability ([2]; first compound 0.8 µM)	relative viability ([2]; first compound 2.53 µM)	relative viability ([2]; first compound 8 µM)	relative viability ([3]; first compound 0.253 µM)	relative viability ([3]; first compound 0.8 µM)	relative viability ([3]; first compound 2.53 µM)	relative viability ([3]; first compound 8 µM)	relative viability ([4]; first compound 0.253 µM)	relative viability ([4]; first compound 0.8 µM)	relative viability ([4]; first compound 2.53 µM)	relative viability ([4]; first compound 8 µM)	relative viability (Indole-3-carbinol; 0.253 µM)	relative viability (Indole-3-carbinol; 0.8 µM)	relative viability (Indole-3-carbinol; 2.53 µM)	relative viability (Indole-3-carbinol; 8 µM)
LCLC-103H	1.13	1.04	1.12	0.972	0.691	0.783	0.669	0.639	1.13	1.12	1.01	0.977	0.317	0.339	0.371	0.337	0.889	1.01	0.932	0.915
NCI-H1915	1.09	1.1	1.1	1.11	1.03	1.08	1.06	1.01	0.881	0.852	0.892	0.924	0.383	0.365	0.368	0.354	1.01	1.01	0.956	0.976
ChaGo-K-1					0.955	0.941	0.872	0.894	1.21	1.04	1.18	1.1	0.479	0.475	0.551	0.443	0.965	0.99	0.893	1
PC-14	0.943	0.882	0.891	0.903	0.961	0.842	0.987	0.913	0.936	1.04	0.903	0.883	0.586	0.536	0.582	0.5	1.04	0.948	1	0.953
NCI-H1703	0.786	0.413	0.665	0.636	0.342	0.376	0.309	0.326	0.835	0.853	0.991	0.661					0.962	0.908	1.05	0.904
NCI-H1793	0.932	0.898	1.08	0.927	0.728	0.78	0.685	0.656					0.438	0.409	0.499	0.339	0.943	0.841	1.04	0.906
NCI-H1650					0.987		1.08	1.3	0.907	1.02	1.16	0.968	0.42		0.462	0.356	1.03	0.794	0.943	0.882
NCI-H1395	1.04	0.974	1.02	1.14	0.818	1.1	0.97	0.914					0.434	0.405	0.432	0.457	0.945	0.92	0.929	0.881
NCI-H1792	0.499	0.37	0.506	0.47					0.95	1.01	0.95	0.984	0.191	0.26		0.194	0.88	0.833	0.811	0.984
IA-LM	0.674	0.593	0.637	0.444	1.07	1.37	1.11	1.09	0.722	1.08	0.863	0.738					0.962	1.11	1.04	0.905
